Data reported in article PMC11547513, “Design, Synthesis and Biological Activity Evaluation of β-Carboline Derivatives Containing Nitrogen Heterocycles” (Molecules, 2024).
Like-named read-outs stand apart in the source and are kept apart here.

How the values were obtained:
[1] = test system: T47D (human breast cancer cell); assay: MTT assay, in vitro cytotoxicity on T47D
Text: (§2) Cells were purchased from the Cell Bank of the Chinese Academy of Sciences (Kunming, China).

[2] = test system: A549 (human lung cancer cell); assay: MTT assay, in vitro cytotoxicity on A549
Text: as §2

[3] = test system: K562 (human chronic myeloid leukemia cell); assay: MTT assay, in vitro cytotoxicity on K562
Text: as §2

[4] = test system: Hek-293T (human embryonic kidney cells); assay: MTT assay, in vitro cytotoxicity on normal Hek-293T; details: read-out: Inhibitory Activity/% at 10 μM, Hek-293T
Text: as §2

PC-3 cells [5] = assay: Intracellular ROS assay (DCFH-DA, flow cytometry); type: cell-based, human; details: 10 μM, 24 h; negative control MFI 19.8
Method: (§1) Apoptosis is an important target for antitumor therapy. To explore the antitumor mechanism of compound 8q, cell apoptosis was detected using flow cytometry. […] Moreover, reactive oxygen species (ROS) play a significant role in cell growth, differentiation and apoptosis. Excessive ROS can cause oxidative damage and lead to cell apoptosis. […]
a wound healing assay was performed using the method we previously reported1. In short, PC-3 cells were seeded in a six-well plate at a density of 10 × 105 and incubated at a constant temperature of 37 ℃ and 5% CO2 for 24 h. Then the pipette tip was used to create a uniform wound on the surface of cells. Subsequently, after cleaning twice with PBS, the scratch healing of the 8q treatment group and the positive drug treatment […]
was used to measure and quantify cell migration. […]
PC-3 cells were seeded in a six-well plate at a density of 3 × 105, and cultured at 37 ℃ and 5% CO2 for 24 h before adding 10 μM. […] After completion, the cells were immediately detected on the Flow Cytometry (Solarbio, Beijing, China). […]
at 37 ° C for 20 min. Subsequently, the staining solution was wash off with basic culture medium and detected the fluorescence intensity using the flow cytometer. The data was analyzed and obtained through Flow Jo and Prism 7.04 software. […]
The distribution of cycles was analyzed by Flow Jo and Prism 7.04 software. […]

Cyclin D1 = assay: Western blot of Cyclin D1 expression in PC-3 cells; type: cell-based, human; details: 30 μM, 24 h, β-Tubulin internal reference
Method: To analyze the effect of compound 8q on cell cycle, the cycle of PC-3 cells was detected after being treated with compound 8q for 24 h (Figure 5). […] In addition, Cyclin D1, a cell cycle-related protein, is a key regulator of cycle progression, mainly regulating G1/S phase transition. […] In summary, compound 8q can arrest cells in the G0/G1 phase. […]
2.6.Effects of 8q on expression of cell cycle related protein
PC-3 cells were seeded in six-well plates at a density of 3 × 10^5 per well and incubated in 5 % CO2 incubator at 37 ℃ for 24 h. Then different concentrations of 8q and Harmine were added to continue cultivation for 24 h. The prepared 1× RIPA lysis buffer (Solarbio, Beijing, China), as well as protease (Solarbio, Beijing, China) and phosphatase inhibitors (Solarbio, Beijing, China), were added to the well in a ratio of 100:1:1. The cells were scraped off and then lysed on ice for 40 min. Mixed liquid was centrifuged, and the supernatant used the BCA protein assay kit (Beyotime, Shanghai, […]
China) to measure protein concentration. 12.5% SDS-PAGE gel was used to separate the extracted total protein, which was transferred onto a PVDF membrane and sealed with 5% skim milk for 2.5 h. After that, primary antibodies included β-Tubulin and Cyclin D1 were added and incubated overnight at 4 ℃. […]

PC-3 cells [6] = assay: Annexin V-FITC/PI apoptosis, flow cytometry; type: cell-based, human; details: 10 μM
Text: as §1
2.3.The effect of compound 8q on cell apoptosis
We used Annexin V-FITC/ PI double staining to evaluate cellular apoptosis via flow cytometry to figure out if apoptosis participates in the inhibition of cell growth.
PC-3 cells were seeded in a six-well plate at a density of 3 × 105, and cultured at 37 ℃ and 5% CO2 for 24 h before adding 10 μM. 20 μM and 30 μM compound 8q and 30 μM Harmine to each well. After 48 h, the cells were collected and stained and incubated flowing the manufacturer ’s protocol of the Annexin V-FITC/PI Apoptosis Detection Kit (Solarbio, Beijing, China). After completion, the cells were immediately detected on the Flow Cytometry (Solarbio, Beijing, China). The experimental results were processed using Flow Jo and Prism 7.04 software. […]

[7] = test system: PC-3 (human prostate cancer cell); assay: MTT assay, in vitro cytotoxicity on PC-3
Text: as §2

With `COc1cc(-c2nc(-c3nnc(SCC(=O)Nc4ccc(CN5CCOCC5)cc4)o3)cc3c2[nH]c2ccccc23)cc(OC)c1OC` [Compound 8q, N-(4-(morpholinomethyl)phenyl)-2-((5-(1-(3,4,5-trimethoxyphenyl)-9H-pyrido[3,4-b]indol-3-yl)-1,3,4-oxadiazol-2-yl)thio)acetamide] the IC50 ([1]; read-out: IC50 (Mean ± S.D.), T47D) was 9.96 ± 0.63 µM, the inhibition at 10 µM ([1]; read-out: Inhibitory Activity/% at 10 μM, T47D) was 14.5 ± 7.43% and the IC50 ([2]; A549, read-out: IC50 (Mean ± S.D.), A549) was 26.2 ± 1.51 µM. It also gave an inhibition at 10 µM ([2]; A549, read-out: Inhibitory Activity/% at 10 μM, A549) of 32.9 ± 4.3%, an IC50 ([3]; Homo sapiens, K562, read-out: IC50 (Mean ± S.D.), K562, average of three replicates) of 11.2 µM and an inhibition at 10 µM ([3]; Homo sapiens, K562, read-out: Inhibitory Activity/% at 10 μM, K562) of 25.6 ± 14.9%. For the same compound, the IC50 ([3]; read-out: IC50 (Mean ± S.D.), K562, average of three replicates) was 11.7 ± 0.21 µM, the inhibition at 10 µM [4] was 54.8 ± 0.99% and the “ROS mean fluorescence intensity (MFI) value” (PC-3 cells [5]) was 138. For the same compound, the “Expression of Cyclin D1” value (Cyclin D1) was “significantly downregulated”, the “Total apoptosis rate in PC-3 cells” value (PC-3 cells [6]; 48 h) was 63.23% and the “Annexin V-FITC/PI flow cytometry quadrant Q1” value (PC-3 cells [6]; Figure 4A) was 0.35. For the same compound, the “Annexin V-FITC/PI flow cytometry quadrant Q2” value (PC-3 cells [6]; Figure 4A) was 22.7, the “Annexin V-FITC/PI flow cytometry quadrant Q3” value (PC-3 cells [6]; Figure 4A) was 32.9 and the “Annexin V-FITC/PI flow cytometry quadrant Q4” value (PC-3 cells [6]; Figure 4A) was 44.1. For the same compound, the IC50 ([7]; Homo sapiens, read-out: IC50 (Mean ± S.D.), PC-3, average of three replicates) was less than 10 µM, the inhibition at 10 µM ([7]; Homo sapiens, read-out: Inhibitory Activity/% at 10 μM, PC-3, Table 2 (8 series), 10 μM, average of three replicates, "/" means no anticancer activity) was 46.1 ± 0.74% and the IC50 ([7]; read-out: IC50 (Mean ± S.D.), PC-3, average of three replicates) was 9.86 ± 1.03 µM.
